Source: patent publication US20230416261A1, “ETHANEDIAMINE-HETEROCYCLE DERIVATIVES AS INHIBITORS OF PROTEIN ARGININE METHYLTRANSFERASES” (Board of Regents, The University of Texas System, priority 2021, published 2023)

Experiments:
PRMT1 [1] = target: T1, PRMT1 (Homo sapiens, UniProt Q99873); assay: PRMT1 Enzymatic Assay (LANCE TR-FRET, methylation of histone H4 at Arg3); assay type: biochemical; set-up: purchased SignalChem P365-380G; details: PRMT1 1.5 nM, SAM 1 μM, biotinylated histone H4 (1-21) 25 nM; read-out: PRMT-1 IC50
In short: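 PRMT1 (1.5 nM) preincubated 15 min with compound at room temperature, then reacted 1 h with 1 μM SAM and 25 nM biotinylated histone H4 (1-21) in 50 mM Hepes pH 8, 1 mM TCEP, 0.003% Tween-20. H4R3me detected by TR-FRET (665/620 nm ratio); IC50 from four-parameter logistic fit.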

DOHH2 cells = assay: DOHH2 Long Term Phenotypic Assay (7 days, Cell Titer-Glo viability); assay type: cell-based; details: Homo sapiens, DOHH-2, 168 h, Cell Titer-Glo 2.0
In short: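 DOHH2 lymphoma cells (250 per well) in RPMI-1640 with 10% FBS were exposed to 1:3 serially diluted compounds for 7 days at 37 °C, 5% CO2. Viability was read by CellTiter-Glo 2.0 luminescence, and IC50 values came from four-parameter logistic fits.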

PATC53 cells = assay: PATC53 Long Term Phenotypic Assay (14 days, crystal violet viability); assay type: cell-based; details: 336 h
Method: PATC53 cells were derived from the PATC53 PDX model and kindly provided by Jason Fleming (MDACC). The cells were routinely maintained in DMEM/F12 Medium (Corning, Catalog #10-090-CV) supplemented with 10% fetal bovine serum (Sigma, Catalog #F2442), 100 units/mL penicillin and 100 μg/mL streptomycin (Gibco, Catalog #15140-122) in a humidified incubator (37° C., 5% CO2). Prior to the assay, cells were seeded onto a 12-well, TC treated plate (Corning, catalog #353043) at a density of 250 cells per well in a volume of 1 mL. The plate was incubated for 24 hours at 37° C. and 5% CO2. Stock solutions of the test compounds were prepared in 100% DMSO (Sigma, Catalog #D2650) and serially diluted 1:3 using 100% DMSO. Compounds were additionally diluted 1:100 in culture medium, and 110 μL/well was transferred to the tissue culture plate. Following the compound addition, the plate was incubated at 37° C. and 5% CO2 for 14 days. Viability was then assessed by crystal violet staining (Fisher Scientific, Catalog #C58125) as follows: 450 μL of crystal violet (1 mg/mL) was added to the plate for a 10 minute incubation at room temperature. After incubation, the plate was washed 3× with distilled water to remove excess dye and allowed to dry overnight. The crystal violet was solubilized using 10% HOAc (500 μL) for 10 minutes at room temperature, while shaking. A volume of 100 μL was then transferred to a 96-well SpectraPlate (Perkin Elmer, Catalog #6005649). Absorbance at 590 nm was measured with a BioTek Synergy Neo. IC50 values were calculated using a four-parameter logistic curve fit using Genedata Screener software.

PRMT1 [2] = target: T1, PRMT1; assay: PRMT1 RKO Cellular Target Engagement Assay (In-Cell Western, asymmetric di-methyl arginine); assay type: cell-based; details: RKO cells, 48 hr compound incubation; read-out: RKO IC50 (PRMT-1 Target Engagement)
In short: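 RKO cells (1,000/well) received 1:3 serially diluted compound for 48 h at 37 °C, then were fixed, permeabilised and immunostained for asymmetric di-methyl arginine by In-Cell Western. The 800 nm antibody signal was normalised to CellTag 700 nm; IC50 from four-parameter logistic fit.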

T1 sequence (Q99873 whole entry): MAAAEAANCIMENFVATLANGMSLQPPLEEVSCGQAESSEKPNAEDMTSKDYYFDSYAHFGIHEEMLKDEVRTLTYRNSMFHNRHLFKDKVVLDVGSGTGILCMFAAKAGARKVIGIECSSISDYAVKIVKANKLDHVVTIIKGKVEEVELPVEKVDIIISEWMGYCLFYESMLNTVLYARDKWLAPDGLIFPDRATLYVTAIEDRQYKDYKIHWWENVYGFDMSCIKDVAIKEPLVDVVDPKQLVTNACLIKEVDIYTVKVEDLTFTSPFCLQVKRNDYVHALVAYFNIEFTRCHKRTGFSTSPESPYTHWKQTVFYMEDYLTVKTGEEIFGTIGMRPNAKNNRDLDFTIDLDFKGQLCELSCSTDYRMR

IC50 (PRMT1 [1]) | IC50 (PRMT1 [2]) | Structure (SMILES) | IC50 (DOHH2 cells) | IC50 (PATC53 cells)
65 nM | 271 nM | CNCCN(C)Cc1nn2c(c1C1CCC(COC)(COC)CC1)CN(C(=O)C1CCC(F)(F)CC1)CC2 [Example 29, (3-(4,4-bis(methoxymethyl)-cyclohexyl)-2-((methyl(2-(methylamino)ethyl)amino)-methyl)-6,7-dihydropyrazolo-[1,5-a]pyrazin-5(4H)-yl)(4,4-difluorocyclohexyl)-methanone] | 99 nM | 84 nM
81 nM | 795 nM | CNCCN(C)Cc1nn2c(c1C1CCC(COC)(COC)CC1)CN(C(=O)COC)CC2 [Example 30, 1-(3-(4,4-bis(methoxy-methyl)cyclohexyl)-2-((methyl(2-(methylamino)-ethyl)amino)methyl)-6,7-dihydropyrazolo[1,5-a]-pyrazin-5(4H)-yl)-2-methoxyethan-1-one] | 159 nM | 795 nM
46 nM | 293 nM | CNCCN(C)Cc1nn2c(c1C1CCC(COC)(COC)CC1)CN(C(=O)C1CCCO1)CC2 (centres unmarked) [Example 32, (3-(4,4-bis(methoxymethyl)-cyclohexyl)-2-((methyl(2-(methylamino)ethyl)amino)-methyl)-6,7-dihydropyrazolo-[1,5-a]pyrazin-5(4H)-yl)-(tetrahydrofuran-2-yl)-methanone] | 160 nM | 163 nM
55 nM | 120 nM | CNCCN(C)Cc1nn2c(c1C1CCC(COC)(COC)CC1)CN(C(=O)C1CCCC1)CC2 [Example 33, (3-(4,4-bis(methoxymethyl)-cyclohexyl)-2-((methyl(2-(methylamino)ethyl)amino)-methyl)-6,7-dihydropyrazolo-[1,5-a]pyrazin-5(4H)-yl)-(cyclopentyl)methanone] | 83 nM | 55 nM
50 nM | 269 nM | CNCCN(C)Cc1nn2c(c1C1CCC(COC)(COC)CC1)CN(C(=O)C(C)(F)F)CC2 [Example 36, 1-(3-(4,4-bis(methoxy-methyl)cyclohexyl)-2-((methyl(2-(methylamino)-ethyl)amino)methyl)-6,7-dihydropyrazolo[1,5-a]-pyrazin-5(4H)-yl)-2,2-difluoropropan-1-one] | 190 nM | 246 nM
90 nM | 237 nM | CNCCN(C)Cc1nn2c(c1C1CCC(COC)(COC)CC1)CN(C(=O)C(C)(C)C#N)CC2 [Example 37, 3-(3-(4,4-bis(methoxy-methyl)cyclohexyl)-2-((methyl(2-(methylamino)-ethyl)amino)methyl)-6,7-dihydropyrazolo[1,5-a]-pyrazin-5(4H)-yl)-2,2-dimethyl-3-oxopropanenitrile] | 142 nM | 171 nM
72 nM | 180 nM | CNCCN(C)Cc1nn2c(c1C1CCC(COC)(COC)CC1)CN(C(=O)C1(C#N)CCC1)CC2 [Example 41, 1-(3-(4,4-bis(methoxy-methyl)cyclohexyl)-2-((methyl(2-(methylamino)-ethyl)amino)methyl)-4,5,6,7-tetrahydropyrazolo[1,5-a]-pyrazine-5-carbonyl)cyclobutane-1-carbonitrile] | 91 nM | 175 nM
29 nM | 431 nM | COCC1(COC)CCC(c2c(CN(C)CCN)nn3c2CN(C(=O)C2CCCC2)CC3)CC1 [Example 42, (2-(((2-aminoethyl)(methyl)-amino)methyl)-3-(4,4-bis-(methoxymethyl)cyclohexyl)-6,7-dihydropyrazolo[1,5-a]-pyrazin-5(4H)-yl)-(cyclopentyl)methanone] | 180 nM | 136 nM
29 nM | 486 nM | COCC1(COC)CCC(c2c(CN(C)CCN)nn3c2CN(C(=O)C2(C(F)(F)F)CC2)CC3)CC1 [Example 46, (2-(((2-aminoethyl)(methyl)-amino)methyl)-3-(4,4-bis-(methoxymethyl)cyclohexyl)-6,7-dihydropyrazolo[1,5-a]-pyrazin-5(4H)-yl)(1-(trifluoro-methyl)cyclopropyl)-methanone] | 288 nM | 294 nM
15 nM | 671 nM | COCC1(COC)CCC(c2c(CN(C)CCN)nn3c2CN(C(=O)C2(F)CC2)CC3)CC1 [Example 47, (2-(((2-aminoethyl)(methyl)-amino)methyl)-3-(4,4-bis-(methoxymethyl)cyclohexyl)-6,7-dihydropyrazolo[1,5-a]-pyrazin-5(4H)-yl)(1-fluorocyclopropyl)methanone] | 187 nM | 45 nM

Further lines, the compound ahead of its results:

Structure (SMILES) | IC50 (PRMT1 [1]) | IC50 (PRMT1 [2]) | IC50 (DOHH2 cells) | IC50 (PATC53 cells)
CNCCN(C)Cc1nn2c(c1C1CCC(COC)(COC)CC1)CN(C(=O)C1CCOC1)CC2 (centres unmarked) [Example 35, (3-(4,4-bis(methoxymethyl)-cyclohexyl)-2-((methyl(2-(methylamino)ethyl)amino)-methyl)-6,7-dihydropyrazolo-[1,5-a]pyrazin-5(4H)-yl)-(tetrahydrofuran-3-yl)-methanone] | 62 nM | 818 nM | 212 nM | 655 nM
CNCCN(C)Cc1nn2c(c1C1CCC(COC)(COC)CC1)CN(C(=O)C(C)C#N)CC2 (centres unmarked) [Example 38, 3-(3-(4,4-bis(methoxy-methyl)cyclohexyl)-2-((methyl(2-(methylamino)-ethyl)amino)methyl)-6,7-dihydropyrazolo[1,5-a]-pyrazin-5(4H)-yl)-2-methyl-3-oxopropanenitrile] | 103 nM | 690 nM | 83 nM | 580 nM
CNCCN(C)Cc1nn2c(c1C1CCC(COC)(COC)CC1)CN(C(=O)C1CC(C)(C)C1)CC2 [Example 39, (3-(4,4-bis(methoxymethyl)-cyclohexyl)-2-((methyl(2-(methylamino)ethyl)amino)-methyl)-6,7-dihydropyrazolo-[1,5-a]pyrazin-5(4H)-yl)(3,3-dimethylcyclobutyl)-methanone] | 79 nM | 177 nM | 108 nM | 49 nM
COCC1(COC)CCC(c2c(CN(C)CCN)nn3c2CN(C(=O)C2CC(F)(F)C2)CC3)CC1 [Example 40, (2-(((2-aminoethyl)(methyl)-amino)methyl)-3-(4,4-bis-(methoxymethyl)cyclohexyl)-6,7-dihydropyrazolo[1,5-a]-pyrazin-5(4H)-yl)(3,3-difluorocyclobutyl)-methanone] | 54 nM | 1520 nM | 249 nM | 304 nM
COCC1(COC)CCC(c2c(CN(C)CCN)nn3c2CN(C(=O)C(C)C)CC3)CC1 [Example 43, 1-(2-(((2-aminoethyl)-(methyl)amino)methyl)-3-(4,4-bis(methoxymethyl)-cyclohexyl)-6,7-dihydro-pyrazolo[1,5-a]pyrazin-5(4H)-yl)-2-methylpropan-1-one] | 27 nM | 460 nM | 185 nM | 149 nM
COCC1(COC)CCC(c2c(CN(C)CCN)nn3c2CN(C(=O)C24CC(C2)C4)CC3)CC1 [Example 44, (2-(((2-aminoethyl)(methyl)-amino)methyl)-3-(4,4-bis-(methoxymethyl)cyclohexyl)-6,7-dihydropyrazolo[1,5-a]-pyrazin-5(4H)-yl)(bicyclo-[1.1.1]pentan-1-yl)methanone] | 17 nM | 210 nM | 150 nM | 123 nM
COCC1(COC)CCC(c2c(CN(C)CCN)nn3c2CN(C(=O)C24CC(F)(C2)C4)CC3)CC1 [Example 45, (2-(((2-aminoethyl)(methyl)-amino)methyl)-3-(4,4-bis-(methoxymethyl)cyclohexyl)-6,7-dihydropyrazolo[1,5-a]-pyrazin-5(4H)-yl)(3-fluorobicyclo[1.1.1]pentan-1-yl)methanone] | 18 nM | 830 nM | 175 nM | 178 nM
